Data: patent US20230114264A1, “ACTIVATION OF LYTIC GENES IN CANCER CELLS” (priority 2020, published 2023)

System: BGLF4
Assay: BGLF4 gRNA transfection into C666-1 cells, Western blotting
Type: cell-based, Epstein-Barr virus (EBV)
Details: FIG. 12B
Method: BGLF4 gRNAs were tested for triggering EBV reactivation in C666-1 cells expressing HA-dCas9-EGFP and 3×FLAG-pUFa-p65HSF1. Seven EBV genomic loci at the BGLF4 promoter were used to design the gRNAs for BGLF4 induction (gRNA (1), gRNA (2), gRNA (3), gRNA (4), gRNA (5), gRNA (6), and gRNA (7)). Individual BGLF4 gRNAs were transfected into cells and the induction of BGLF4 protein expression was studied by Western blotting. […] To study the combination effects of BGLF4 gRNAs, BGLF4 gRNAs were transfected into cells individually or in combination. […] As a positive control of EBV reactivation, the C666-1 cells were treated with the chemical inducer Gemcitabine to trigger EBV reactivation.

In the case of Nc1ccn([C@@H]2O[C@H](CO)[C@@H](O)C2(F)F)c(=O)n1 [Gemcitabine], the “EBV reactivation (BZLF1 expression)” value is reported as “implied the trigger of EBV reactivation”.
